According to the supplement of paper PMC11061612:

How the values were obtained:
[1] = system: NB13 (Neuroblastoma); experiment: combination Emax (second highest fraction inhibited in the dose matrix, 72 h); higher = more inhibition; extreme values may be limits of the assay
Outline: (§1)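 Cell lines in DMEM/F12 or RPMI with 10% FBS were plated in 1536-well plates, held 24 hours at 37°C, 5% CO2, then given two-drug dose matrices for 72 hours (DMSO typically 0.2%). Viability was read by CellTiter-Glo 2.0 luminescence and scaled as inhibition from 0 (vehicle wells) to 1 (blank wells). Combination Emax is the second-highest inhibition in the matrix; Bliss excess is observed combination effect minus expected EA + EB − EA·EB, EA and EB being single-agent effects.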

[2] = system: DMS-53 (Small Cell Lung Carcinoma); experiment: as above
Outline: as §1

[3] = system: HCC1428 (Breast Carcinoma); experiment: as above
Outline: as §1

[4] = system: DU-4475 (Breast Carcinoma); experiment: as above
Outline: as §1

[5] = system: JVM-2 (B-Cell Non-Hodgkin's Lymphoma); experiment: as above
Outline: as §1

[6] = system: NB13 (Neuroblastoma); experiment: Bliss excess, mean over the matrix (fraction); higher = more synergy
Outline: as §1

[7] = system: NCI-H1651 (Lung Adenocarcinoma); experiment: as above
Outline: as §1

[8] = system: A101D (Melanoma); experiment: as above
Outline: as §1

[9] = system: 5637 (Bladder Carcinoma); experiment: as above
Outline: as §1

[10] = system: KYSE-140 (Esophageal Squamous Cell Carcinoma); experiment: as above
Outline: as §1

[11] = system: SK-HEP-1 (Hepatocellular Carcinoma); experiment: as above
Outline: as §1

[12] = system: CA46 (Burkitt's Lymphoma); experiment: as above
Outline: as §1

[13] = system: ESO26 (Esophageal Adenocarcinoma); experiment: as above
Outline: as §1

[14] = system: Jurkat (T-Lymphoblastic Leukemia); experiment: as above
Outline: as §1

[15] = system: UACC-812 (Breast Carcinoma); experiment: as above
Outline: as §1

[16] = system: SW620 (Colorectal Carcinoma); experiment: as above
Outline: as §1

[17] = system: NCI-H441 (Lung Adenocarcinoma); experiment: as above
Outline: as §1

[18] = system: PEO1 (Ovarian Carcinoma); experiment: as above
Outline: as §1

[19] = system: EB2 (Burkitt's Lymphoma); experiment: as above
Outline: as §1

[20] = system: JHH-2 (Hepatocellular Carcinoma); experiment: as above
Outline: as §1
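Throughout, for Bliss excess, mean over the matrix: after 72 h of two-drug dosing.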

SMILES	combination Emax [1]	combination Emax [2]	combination Emax [3]	combination Emax [4]	combination Emax [5]	Bliss excess [6]	Bliss excess [7]	Bliss excess [8]	Bliss excess [9]	Bliss excess [10]	Bliss excess [11]	Bliss excess [12]	Bliss excess [13]	Bliss excess [14]	Bliss excess [15]	Bliss excess [16]	Bliss excess [17]	Bliss excess [18]	Bliss excess [19]	Bliss excess [20]
COc1cccc(OCCCN)c1-c1cc(Nc2cnc(C#N)cn2)n[nH]1 [Prexasertib] + CN(C)CCCOc1ccc(-c2ccc3ncc4c(c3c2)n(C2CCOCC2)c(=O)n4C)cn1 [AZD0156] (first compound max 1 µM, 7x7, partner max 1 µM)	0.935	0.275	0.408	0.951	0.949	-0.0268	-0.107	0.0419	-0.0174	-0.0129	-0.0206	0.0713	0.0207	-0.0264	-0.0324	-0.0032	-0.0994	-0.0168	-0.0088	-0.0371
COc1cccc(OCCCN)c1-c1cc(Nc2cnc(C#N)cn2)n[nH]1 [Prexasertib] + C[C@@H]1COCCN1C2=NC(=NC(=C2)C3(CC3)[S@](=N)(=O)C)C4=C5C=CNC5=NC=C4 [AZD6738] (first compound max 1 µM, 7x7, partner max 10 µM)	0.943	0.272	0.378	0.995	0.949	-0.0603	-0.0439	-0.0066	-0.0304	-0.0191	0.0447	-0.0755	-0.0681	-0.0076	0.049	0.013	0.0009	-0.0083	-0.0478	-0.0136
COc1cccc(OCCCN)c1-c1cc(Nc2cnc(C#N)cn2)n[nH]1 [Prexasertib] + Cc1cc2ncnn2cc1Nc1ncc2c(n1)n(C1CCOCC1)c(=O)n2C [AZD7648] (first compound max 1 µM, 7x7, partner max 10 µM)	0.919	0.293	0.345	0.963	0.956	-0.023	-0.132	0.0232	-0.0423	-0.0066	-0.0416	-0.0182	0.0142	-0.0008	-0.0402	-0.0177	0.0071	-0.0117	-0.0306	-0.0348
COc1cccc(OCCCN)c1-c1cc(Nc2cnc(C#N)cn2)n[nH]1 [Prexasertib] + O=C(c1cc(Cc2n[nH]c(=O)c3ccccc23)ccc1F)N1CCN(C(=O)C2CC2)CC1 [Olaparib] (first compound max 1 µM, 7x7, partner max 10 µM)	0.881	0.314	0.622	0.98	0.946	-0.0317	-0.0471	-0.0549	-0.0729	-0.152	-0.0127	-0.192	-0.0191	-0.0054	-0.0395	-0.0457	-0.101	-0.0183	-0.0373	-0.0428
CCc1c2c(nc3ccc(O)cc13)-c1cc3c(c(=O)n1C2)COC(=O)[C@]3(O)CC [SN-38] + CN(C)CCCOc1ccc(-c2ccc3ncc4c(c3c2)n(C2CCOCC2)c(=O)n4C)cn1 [AZD0156] (first compound max 0.3 µM, 7x7, partner max 1 µM)	0.886	0.729	0.123	0.95	0.949	0.0313	-0.021	0.0006	0.0507	0.0176	0.0105	0.0951	-0.0042	0.059	0.034	0.11	-0.0052	-0.0037	0.0238	0.0204
Cn1cnc2c(F)c(Nc3ccc(Br)cc3Cl)c(C(=O)NOCCO)cc21 [Selumetinib] + C=CCn1c(=O)c2cnc(Nc3ccc(N4CCN(C)CC4)cc3)nc2n1-c1cccc(C(C)(C)O)n1 [AZD1775] (first compound max 10 µM, partner max 1 µM)	0.794	0.247	0.211	1	0.906	-0.0591	-0.0692	-0.087	-0.0306	-0.0514	0.0127	-0.0625	-0.0853	-0.0309	-0.0425	-0.0198	0.0069	-0.0059	-0.071	-0.0571
